According to patent publication US20260250322A1, “NEW PEPTIDES AS SELECTIVE IL-23 RECEPTOR INHIBITORS” (SANOFI, priority 2023, published 2026):
Bridge positions count the residues as written; N and C are the ends. Square brackets hold non-standard residues; d marks the D form. Peptide text beside a SMILES is read from it. 1Nal = N[C@@H](Cc1cccc2ccccc12)C(=O)O; 2Nal = N[C@@H](Cc1ccc2ccccc2c1)C(=O)O; Cit = NC(=O)NCCC[C@H](N)C(=O)O; Orn = NCCC[C@H](N)C(=O)O; Aib = CC(C)(N)C(=O)O

Assays:
[1] = Protease stability in simulated intestinal fluids (FaSSIF); assay type: in vitro ADME; settings: 37° C.; for FaSSIF 0 (min), remaining percentage of peptide compound: 0 min (set to 100%), 1 μM; for remaining at 1 h, 1 μM / remaining at 4 h, 1 μM / remaining at 2 h, 1 μM: simulated intestinal fluid (FaSSIF), protease stability; for remaining at 1 h, 1 μM: 60 min, read-out: FaSSIF 60 (min), remaining percentage of peptide compound; for remaining at 4 h, 1 μM: 240 min, read-out: FaSSIF 240 (min), remaining percentage of peptide compound; for remaining at 2 h, 1 μM: 120 min, read-out: FaSSIF 120 (min), remaining percentage of peptide compound
Protocol: Studies were carried out in simulated intestinal fluid (SIF) and simulated gastric fluid (SGF) to evaluate gastric stability of the peptide compounds of the disclosure. […]
Similarly, the term “Pancreatin-SIF” refers to a solution of simulated intestinal fluid containing pancreatin whereas “SIF-media” refers to a solution of simulated intestinal fluid without pancreatin. Pancreatin-SIF was prepared by dissolving 1 mg Pancreatin (MP Biomedicals) in 10 mL SIF media concentrate (ProSense). […]
To 76 μL of the Pepsin-SGF buffer, 4 μL of the 20 µM compound stock solution were added and incubated at 37° C. At each timepoint (0, 60, 120 and 240 minutes) the reaction was quenched with addition of 80 μL Ethanol (0.1% HCOOH). The samples were centrifuged for 20 minutes and an aliquot of the supernatant 100 μL were transferred to a LoBind-MTP plate and analyzed by LCMS/MS. The peak area response was calculated at each time point for each test compound. As internal reference, the peak area response of the same test compound at TO was calculated. The percent remaining at each timepoint was calculated based on the peak area response ratio of the test compound at TO. Time 0 was set to 100%, and all later timepoints were calculated relative to time 0.

[2] = biological target: T1, human IL-23R (Homo sapiens, UniProt Q5VWK5); assay: Human ELISA IL-23/IL-23R binding inhibition; settings: human IL-23 coated, recombinant human IL-23R-Fc chimera
T1 sequence (Q5VWK5 24-355 limits assumed): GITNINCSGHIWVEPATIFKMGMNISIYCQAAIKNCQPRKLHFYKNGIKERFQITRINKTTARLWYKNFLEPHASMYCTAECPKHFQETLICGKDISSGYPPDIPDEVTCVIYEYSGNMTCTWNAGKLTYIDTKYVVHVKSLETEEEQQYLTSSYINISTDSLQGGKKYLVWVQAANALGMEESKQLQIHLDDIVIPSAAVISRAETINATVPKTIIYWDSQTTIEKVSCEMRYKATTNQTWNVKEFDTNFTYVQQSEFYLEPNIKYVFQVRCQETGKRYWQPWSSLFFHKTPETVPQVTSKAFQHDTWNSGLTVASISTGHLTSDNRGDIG
Outline: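 Plates coated with human IL-23 at 1 μg/ml overnight at 4° C; serially diluted peptides added with recombinant human IL-23R-Fc at 0.1 μg/ml final, 60 min at RT. Bound receptor detected with anti-human IgG1-HRP and a fluorogenic peroxidase substrate.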

[3] = system: IL-23 induced STAT3 signaling; assay: Inhibition of IL-23 induced STAT3 signaling in HEK-Blue IL-23 cells (SEAP reporter); assay type: cell-based; settings: human IL-23 0.25 ng/ml, read-out: Inhibition of IL-23 induced pSTAT3 (IC50 nM)
Outline: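 HEK-Blue IL-23 cells (10,000/well) preincubated 60 min at 37 °C with serially diluted compound, then stimulated overnight with human IL-23 (0.25 ng/ml final). STAT3-driven SEAP in supernatant read with QUANTI-Blue after 45 min at room temperature, OD 620-655 nm; dose-response fitted.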

FaSSIF 0 (min), remaining percentage of peptide compound [1] | remaining at 1 h, 1 μM [1] | remaining at 4 h, 1 μM [1] | IC50 [2] | IC50 [3] | remaining at 2 h, 1 μM [1] | SMILES
100% | 8% | 11% | 11.7 nM | 10000 nM | – | COc1ccc(C[C@@H]2NC(=O)[C@H](CCCNC(=N)N)NC(=O)[C@H](CCC(N)=O)NC(=O)[C@H](Cc3c[nH]c4ccccc34)NC(=O)[C@H]([C@@H](C)O)NC(=O)[C@H](CC(N)=O)NC(=O)[C@H](NC(C)=O)CCCCNC(=O)C[C@@H](C(=O)N[C@@H](CC(N)=O)C(=O)N[C@@H](CC(N)=O)C(N)=O)NC(=O)[C@H](CCCNC(N)=O)NC(=O)[C@H](Cc3cccc4ccccc34)NC2=O)cc1 [compound 18] (Ac-[dK]NTWQRY(Me)[1Nal][Cit]DNN-NH2; lactam 1-10)
100% | 4% | 2% | – | 9280 nM | 7% | COc1ccc(C[C@@H]2NC(=O)[C@H](CCCNC(=N)N)NC(=O)[C@H](CCC(N)=O)NC(=O)[C@H](Cc3c[nH]c4ccccc34)NC(=O)[C@H]([C@@H](C)O)NC(=O)[C@H](CC(N)=O)NC(=O)[C@H](NC(C)=O)CCC(=O)NCCCC[C@@H](C(=O)N[C@@H](CC(N)=O)C(=O)N[C@@H](CC(N)=O)C(N)=O)NC(=O)C(C)(C)NC(=O)[C@H](Cc3cccc4ccccc34)NC2=O)cc1 [compound 11] (Ac-[dE]NTWQRY(Me)[1Nal][Aib]KNN-NH2; lactam 1-10)
100% | 96% | 95% | 16.9 nM | 7500 nM | 98% | COc1ccc(C[C@@H]2NC(=O)C(C)(C)NC(=O)[C@H](CCC(N)=O)NC(=O)[C@H](Cc3c[nH]c4ccccc34)NC(=O)[C@H]([C@@H](C)O)NC(=O)[C@H](CC(N)=O)NC(=O)[C@H](NC(C)=O)CCCCNC(=O)C[C@@H](C(=O)N[C@@H](CC(N)=O)C(=O)N[C@@H](CC(N)=O)C(N)=O)NC(=O)C(C)(C)NC(=O)[C@H](Cc3cccc4ccccc34)NC2=O)cc1 [compound 21] (Ac-[dK]NTWQ[Aib]Y(Me)[1Nal][Aib]DNN-NH2; lactam 1-10)
100% | 2% | 3% | 6.24 nM | 1150 nM | 0% | COc1ccc(C[C@@H]2NC(=O)[C@H](CCCNC(=N)N)NC(=O)[C@H](CCC(N)=O)NC(=O)[C@H](Cc3c[nH]c4ccccc34)NC(=O)[C@H]([C@@H](C)O)NC(=O)[C@H](CC(N)=O)NC(=O)[C@H](NC(C)=O)CC(=O)NCCC[C@@H](C(=O)N[C@@H](CC(N)=O)C(=O)N[C@@H](CC(N)=O)C(N)=O)NC(=O)C(C)(C)NC(=O)[C@H](Cc3ccc4ccccc4c3)NC2=O)cc1 [compound 13] (Ac-[dD]NTWQRY(Me)[2Nal][Aib][Orn]NN-NH2; lactam 1-10)
